The results in this text go back to PubChem BioAssay (NCI).

Test in all cases: NCI-60 cell line screen, 48 h
Test [1] relates to SF-268 CNS.
In test [2] the test system is SNB-19 CNS.
In test [3] the test system is K-562 leukemia.
For test [4], the system named is 786-0 renal.
Test [5] relates to OVCAR-5 ovarian.
For test [6], the system named is RXF 393 renal.
For test [7], the system named is HOP-92 NSCLC.
In test [8] the test system is ACHN renal.
For test [9], the system named is NCI-H23 lung.
The subject of test [10] is SK-MEL-28 melanoma.

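All cell lines were grown in 96-well plates and treated with compound for 48 hours. At the TGI there is no net growth.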 Where a SMILES comes first, the peptide text is derived from it. [ ]: non-standard residue; d: D form. The star is where a group is joined. Phe(4-NO2) = N[CH](Cc1ccc([N+](=O)[O-])cc1)C(=O)O; Boc = CC(C)(C)OC(=O)*; OBn = c1ccc(CO*)cc1

As for `CCCCCc1cc(OC(=O)c2c(O)cc(OC)cc2CCCCC)cc(O)c1C(=O)O`, the TGI was 30 µM in test [1]; 25.5 µM in test [2]; more than 100 µM in test [3]; 30.3 µM in test [4]; 34.1 µM in [5]; 30.8 µM in test [6]. For the same compound, the TGI in test [7] was determined as 31 µM; in test [8] it was 35.9 µM; in [9], 27.1 µM; in test [10], 32.9 µM.
On to `COC(=O)CCC(NC(=O)OC(C)(C)C)C(=O)NC(Cc1ccc([N+](=O)[O-])cc1)C(=O)NCC(=O)OCc1ccccc1` (stereo not given) (Boc-Glu(OMe)-[Phe(4-NO2)]-Gly-OBn; configuration not given here), for which the TGI is more than 100 µM in test [1]; more than 100 µM in test [2]; more than 100 µM in test [3]; more than 100 µM in test [4]; more than 100 µM in test [5]; more than 72.8 µM in test [6]. Moreover, the TGI in test [7] is more than 95.1 µM; in test [8], more than 100 µM; in test [9], more than 100 µM; in test [10] it was more than 100 µM.
For `Cc1ccc([N+](=O)[O-])cc1S(=O)(=O)Nc1ccc(C2=NN(c3ccc([N+](=O)[O-])cc3[N+](=O)[O-])C(c3ccccc3)C2)cc1` (stereo not given), the TGI in test [1] is 28 µM; in test [2] it was 33 µM; in test [3], more than 100 µM; in test [4], 30.3 µM; in test [5], 50.1 µM; in test [6] it was 33.4 µM. For the same compound, the TGI in test [7] was 35.9 µM; in test [8] it was 40.3 µM; in [9] it was 31.5 µM; in [10], more than 100 µM.
Take `O=C(c1ccc(Cl)cc1)c1ccc(OCC(=O)N2CCN(c3ccccc3)CC2)cc1`: the TGI in test [1], in test [2], in [3], in test [4], in [5] and in test [6] was more than 100 µM each time. Further, the TGI in [7], in test [8], in [9] and in test [10] was more than 100 µM throughout.
`COC(=O)C12Oc3ccc(-c4ccc5c(c4O)C(=O)C4=CCC(C)C(O)C4(C(=O)OC)O5)c(O)c3C(=O)C1=CCC(C)C2O` (stereo not given): the TGI in test [1] was 3.57 µM; in test [3], more than 30.6 µM; in [4], 2.98 µM; in test [5], 3.98 µM; in [6], 3.03 µM; in test [7] it was 3.21 µM. The results for the TGI in test [8], in [9] and in test [10] were 3.21 µM, 2.83 µM and 3.51 µM, respectively.
With `CC(=O)Oc1ccc(/C=C/C(=O)O[C@@H](C)[C@H](C)OC(=O)/C=C/c2ccc(OC(C)=O)c(OC(C)=O)c2)cc1OC(C)=O`, the TGI was more than 100 µM in test [1]; more than 100 µM in test [2]; more than 100 µM in [3]; more than 100 µM in test [4]; 58.8 µM in [5]; 44.6 µM in test [6]. Moreover, the TGI in test [7] was 58.2 µM; in test [8] it was more than 100 µM; in test [9] it was 25.8 µM; in test [10] it was 77.7 µM.
For `CC(=O)C1CC(C)=CCC12C(=O)Nc1ccccc12` (stereo not given), the TGI is more than 100 µM in [1]; more than 100 µM in test [2]; more than 100 µM in test [3]; more than 100 µM in [4]; more than 100 µM in test [5]; 68.9 µM in test [6]. Besides, the TGI in test [7], in test [8], in test [9] and in test [10] was more than 100 µM throughout.
Turning to `Oc1ccc(Cl)cc1C1=N/C(=N\CN2CCN(C/N=C3/N=C(c4cc(Cl)ccc4O)CC(c4ccccc4)N3)CC2)NC(c2ccccc2)C1` (stereo not given), the TGI is more than 100 µM in test [1]; more than 100 µM in test [2]; more than 100 µM in [3]; 65.4 µM in test [4]; more than 100 µM in test [5]; 43.3 µM in test [6]. Moreover, the TGI was more than 100 µM in test [7], 75.6 µM in test [8], more than 100 µM in test [9] and more than 100 µM in test [10].
As for `COc1cc(OC)c2c(O)cc(CC(C)O)cc2c1` (stereo not given), the TGI in [1], in test [2], in [3], in test [4], in test [5] and in test [6] was more than 100 µM throughout. The TGI in test [7], in test [8], in test [9] and in [10] was more than 100 µM each time.
`COc1ccc(CCn2cnc3ccccc32)cc1`: the TGI in test [1], in test [2], in test [3], in [4], in test [5] and in test [6] was more than 100 µM each time. For the same compound, the TGI in [7], in test [8] and in test [9] was more than 100 µM each time.
Consider `CC(C)(C)OC(=O)n1cc(C2CNC(=O)C23CCC(=O)N3Cc2ccccc2)c2ccccc21` (stereo not given), for which the TGI was more than 100 µM in [1]; more than 100 µM in [2]; more than 100 µM in test [3]; 44.8 µM in test [4]; 40.8 µM in test [5]; 44.8 µM in test [6]. The results for the TGI in [7] and in test [9] were 26.7 µM and 57.1 µM, respectively.
Regarding `COC1=CC(=O)c2ccccc2C1(CCC=C(C)C)C1=NC(C)(C)CO1` (stereo not given), the TGI in test [1], in test [2], in [3], in test [4], in test [6] and in test [7] was more than 100 µM in each case. Also, the TGI in [8], in test [9] and in test [10] was more than 100 µM throughout.
As for `COc1cc2c3cc1Oc1c(O)c(OC)cc4c1[C@H](Cc1ccc(cc1)Oc1cc(ccc1O)C[C@H]3N(C)CC2)N(C)CC4`, the TGI in test [1] turned out to be 47.3 µM; in test [2], 55.1 µM; in test [3], 17.6 µM; in test [4], 21.7 µM; in [5], 58.6 µM; in test [6], 13.9 µM. Moreover, the TGI in test [7] came to 39.4 µM; in test [8], 61 µM; in test [9], 51.8 µM; in [10], 39.2 µM.
